Legend:
Type in all cases: in vivo
Details in all cases: evaluated after 13 days
[1] = system: Abutilon theophrasti (ABUTH); test: Pre-emergence herbicidal glasshouse test (Table B1)
Procedure, shortened: (§1)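 Plants were grown in standard soil under controlled glasshouse conditions (24/16° C, 14 hours light, 65% humidity) and treated by spraying at 500 g/h unless otherwise indicated. Percentage damage was evaluated after 13 days and expressed on a five-point scale.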

[2] = system: Amaranthus retoflexus (AMARE); test: as above
Procedure, shortened: as §1

[3] = system: Echinochloa crus-galh (ECHCG); test: as above
Procedure, shortened: as §1

[4] = system: Ipomoea hederacea (IPOHE); test: as above
Procedure, shortened: as §1

Setaria faberi (SETFA) [5] = test: as above
Procedure, shortened: as §1

[6] = system: Abutilon theophrasti (ABUTH); test: Post-emergence herbicidal glasshouse test (Table B1)
Procedure, shortened: as §1

[7] = system: Amaranthus retoflexus (AMARE); test: as above
Procedure, shortened: as §1

[8] = system: Echinochloa crus-galh (ECHCG); test: as above
Procedure, shortened: as §1

[9] = system: Ipomoea hederacea (IPOHE); test: as above
Procedure, shortened: as §1

Setaria faberi (SETFA) [10] = test: as above
Procedure, shortened: as §1

For `COc1ccc(C(=O)Nc2c(OC(F)F)ccc(C(=O)Nc3nnnn3C)c2Cl)cc1` [Compound 1.101], the “PRE Application ABUTH, percentage damage on five-point scale” value (“PRE Application ABUTH, percentage damage” below) ([1]; applied at 125 g/ha) was 4 (4=60-79%), the “PRE Application AMARE, percentage damage on five-point scale” value (“PRE Application AMARE, percentage damage” for short) ([2]; applied at 125 g/ha) was 4 (4=60-79%) and the “PRE Application ECHCG, percentage damage on five-point scale” value (from here on “PRE Application ECHCG, percentage damage”) ([3]; applied at 125 g/ha) was 1 (1=0-19%). The “PRE Application IPOHE, percentage damage on five-point scale” value (from here on “PRE Application IPOHE, percentage damage”) ([4]; applied at 125 g/ha) was 2 (2=20-39%), the “PRE Application SETFA, percentage damage on five-point scale” value (from here on “PRE Application SETFA, percentage damage”) (Setaria faberi (SETFA) [5]; applied at 125 g/ha) was 4 (4=60-79%) and the “POST Application ABUTH, percentage damage on five-point scale” value ([6]; applied at 125 g/ha) was 4 (4=60-79%). For the same compound, the “POST Application AMARE, percentage damage on five-point scale” value ([7]; applied at 125 g/ha) was 4 (4=60-79%), the “POST Application ECHCG, percentage damage on five-point scale” value ([8]; applied at 125 g/ha) was 5 (5=80-100%) and the “POST Application IPOHE, percentage damage on five-point scale” value ([9]; applied at 125 g/ha) was 4 (4=60-79%). For the same compound, the “POST Application SETFA, percentage damage on five-point scale” value (Setaria faberi (SETFA) [10]; applied at 125 g/ha) was 4 (4=60-79%).

`CCn1nnnc1NC(=O)c1ccc(OC(F)(F)C(F)F)c(NC(=O)C2CC2)c1Cl` [Compound 1.102] was tested, and the “PRE Application ABUTH, percentage damage” value ([1]; applied at 500 g/h) was 4 (4=60-79%), the “PRE Application AMARE, percentage damage” value ([2]; applied at 500 g/h) was 5 (5=80-100%) and the “PRE Application ECHCG, percentage damage” value ([3]; applied at 500 g/h) was 5 (5=80-100%). For the same compound, the “PRE Application IPOHE, percentage damage” value ([4]; applied) was 1 (1=0-19%), the “PRE Application SETFA, percentage damage” value (Setaria faberi (SETFA) [5]; applied at 500 g/h) was 4 (4=60-79%) and the “POST Application ABUTH, percentage damage on five-point scale” value ([6]; applied at 500 g/h) was 5 (5=80-100%). The “POST Application AMARE, percentage damage on five-point scale” value ([7]; applied at 500 g/h) was 5 (5=80-100%), the “POST Application ECHCG, percentage damage on five-point scale” value ([8]; applied at 500 g/h) was 5 (5=80-100%) and the “POST Application IPOHE, percentage damage on five-point scale” value ([9]; applied at 500 g/h) was 5 (5=80-100%). The “POST Application SETFA, percentage damage on five-point scale” value (Setaria faberi (SETFA) [10]; applied at 500 g/h) was 5 (5=80-100%).

`CCC(=O)Nc1c(OC(F)(F)C(F)F)ccc(C(=O)Nc2nnnn2CC)c1Cl` [Compound 1.103] was tested, and the “PRE Application ABUTH, percentage damage” value ([1]; applied at 500 g/h) was 4 (4=60-79%), the “PRE Application AMARE, percentage damage” value ([2]; applied at 500 g/h) was 5 (5=80-100%) and the “PRE Application ECHCG, percentage damage” value ([3]; applied at 500 g/h) was 3 (3=40-59%). The “PRE Application IPOHE, percentage damage” value ([4]; applied) was 1 (1=0-19%), the “PRE Application SETFA, percentage damage” value (Setaria faberi (SETFA) [5]; applied at 500 g/h) was 1 (1=0-19%) and the “POST Application ABUTH, percentage damage on five-point scale” value ([6]; applied at 500 g/h) was 5 (5=80-100%). For the same compound, the “POST Application AMARE, percentage damage on five-point scale” value ([7]; applied at 500 g/h) was 5 (5=80-100%), the “POST Application ECHCG, percentage damage on five-point scale” value ([8]; applied at 500 g/h) was 5 (5=80-100%) and the “POST Application IPOHE, percentage damage on five-point scale” value ([9]; applied at 500 g/h) was 5 (5=80-100%). For the same compound, the “POST Application SETFA, percentage damage on five-point scale” value (Setaria faberi (SETFA) [10]; applied at 500 g/h) was 5 (5=80-100%).

For `CCC(CC)C(=O)Nc1c(OC(F)(F)F)ccc(C(=O)Nc2nnnn2C)c1Cl` [Compound 1.104], the “PRE Application ABUTH, percentage damage” value ([1]; applied at 500 g/h) was 4 (4=60-79%), the “PRE Application AMARE, percentage damage” value ([2]; applied at 500 g/h) was 5 (5=80-100%) and the “PRE Application ECHCG, percentage damage” value ([3]; applied at 500 g/h) was 5 (5=80-100%). The “PRE Application IPOHE, percentage damage” value ([4]; applied) was 2 (2=20-39%), the “PRE Application SETFA, percentage damage” value (Setaria faberi (SETFA) [5]; applied at 500 g/h) was 3 (3=40-59%) and the “POST Application ABUTH, percentage damage on five-point scale” value ([6]; applied at 500 g/h) was 5 (5=80-100%). For the same compound, the “POST Application AMARE, percentage damage on five-point scale” value ([7]; applied at 500 g/h) was 5 (5=80-100%), the “POST Application ECHCG, percentage damage on five-point scale” value ([8]; applied at 500 g/h) was 5 (5=80-100%) and the “POST Application IPOHE, percentage damage on five-point scale” value ([9]; applied at 500 g/h) was 5 (5=80-100%). For the same compound, the “POST Application SETFA, percentage damage on five-point scale” value (Setaria faberi (SETFA) [10]; applied at 500 g/h) was 5 (5=80-100%).

With `CCC(CC)C(=O)Nc1c(OC(F)(F)F)ccc(C(=O)Nc2nnnn2CC)c1Cl` [Compound 1.105] the “PRE Application ABUTH, percentage damage” value ([1]; applied at 500 g/h) was 5 (5=80-100%), the “PRE Application AMARE, percentage damage” value ([2]; applied at 500 g/h) was 5 (5=80-100%) and the “PRE Application ECHCG, percentage damage” value ([3]; applied at 500 g/h) was 5 (5=80-100%). For the same compound, the “PRE Application IPOHE, percentage damage” value ([4]; applied) was 2 (2=20-39%), the “PRE Application SETFA, percentage damage” value (Setaria faberi (SETFA) [5]; applied at 500 g/h) was 3 (3=40-59%) and the “POST Application ABUTH, percentage damage on five-point scale” value ([6]; applied at 500 g/h) was 5 (5=80-100%). The “POST Application AMARE, percentage damage on five-point scale” value ([7]; applied at 500 g/h) was 5 (5=80-100%), the “POST Application ECHCG, percentage damage on five-point scale” value ([8]; applied at 500 g/h) was 5 (5=80-100%) and the “POST Application IPOHE, percentage damage on five-point scale” value ([9]; applied at 500 g/h) was 5 (5=80-100%). The “POST Application SETFA, percentage damage on five-point scale” value (Setaria faberi (SETFA) [10]; applied at 500 g/h) was 5 (5=80-100%).

`Cn1nnnc1NC(=O)c1ccc(OC(F)(F)F)c(NC(=O)C(C)(C)C)c1Cl` [Compound 1.107] was tested, and the “PRE Application ABUTH, percentage damage” value ([1]; applied at 500 g/h) was 5 (5=80-100%), the “PRE Application AMARE, percentage damage” value ([2]; applied at 500 g/h) was 5 (5=80-100%) and the “PRE Application ECHCG, percentage damage” value ([3]; applied at 500 g/h) was 5 (5=80-100%). For the same compound, the “PRE Application IPOHE, percentage damage” value ([4]; applied) was 4 (4=60-79%), the “PRE Application SETFA, percentage damage” value (Setaria faberi (SETFA) [5]; applied at 500 g/h) was 5 (5=80-100%) and the “POST Application ABUTH, percentage damage on five-point scale” value ([6]; applied at 500 g/h) was 5 (5=80-100%). The “POST Application AMARE, percentage damage on five-point scale” value ([7]; applied at 500 g/h) was 5 (5=80-100%), the “POST Application ECHCG, percentage damage on five-point scale” value ([8]; applied at 500 g/h) was 5 (5=80-100%) and the “POST Application IPOHE, percentage damage on five-point scale” value ([9]; applied at 500 g/h) was 5 (5=80-100%). For the same compound, the “POST Application SETFA, percentage damage on five-point scale” value (Setaria faberi (SETFA) [10]; applied at 500 g/h) was 5 (5=80-100%).
